Assay results as given in PubChem BioAssay AID1963866 (Molecular Pharmacology Branch, DTP, NCI, 2024).

System: PDC KRAS tumor spheroids with HUVEC/MSC, viability
Assay: Anticancer human tumor 349418-098-R-PDC patient-derived lung adenocarcinoma cell line growth inhibition [KRAS2]
Settings: for IC50: curve of first compound; for viability, T/C: stronger effect = lower value
Summary of the method: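 Combination screen of spheroid viability in tumor-cell co-cultures with endothelial (HUVEC) and mesenchymal stem cell stroma. Each agent was tested in half-log dilutions, topping at clinical Cmax or at 10 microM without a known Cmax.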

[1] = second compound 0.1 µM, first compound 0.01 µM
[2] = second compound 0.1 µM, first compound 0.0316 µM
[3] = second compound 0.1 µM, first compound 0.1 µM
[4] = second compound 0.1 µM, first compound 0.316 µM
[5] = second compound 0.1 µM, first compound 1 µM
[6] = second compound 0.1 µM, first compound 3.16 µM
[7] = second compound 0.316 µM, first compound 0.01 µM
[8] = second compound 0.316 µM, first compound 0.0316 µM
[9] = second compound 0.316 µM, first compound 0.1 µM
[10] = second compound 0.316 µM, first compound 0.316 µM
[11] = second compound 0.316 µM, first compound 1 µM
[12] = second compound 0.316 µM, first compound 3.16 µM
[13] = second compound 1 µM, first compound 0.01 µM
[14] = second compound 1 µM, first compound 0.0316 µM
[15] = second compound 1 µM, first compound 0.1 µM
[16] = second compound 1 µM, first compound 0.316 µM
[17] = second compound 1 µM, first compound 1 µM
[18] = second compound 1 µM, first compound 3.16 µM
[19] = second compound 3.16 µM, first compound 0.01 µM
[20] = second compound 3.16 µM, first compound 0.0316 µM
[21] = second compound 3.16 µM, first compound 0.1 µM
[22] = second compound 3.16 µM, first compound 0.316 µM
[23] = second compound 3.16 µM, first compound 1 µM
[24] = second compound 3.16 µM, first compound 3.16 µM
[25] = second compound 10 µM, first compound 0.01 µM
[26] = second compound 10 µM, first compound 0.0316 µM
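Note: spheroids exposed to compounds for seven days before readout.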

Which results are given for `CC(=O)OC12COC1CC(O)C1(C)C(=O)C(O)C3=C(C)C(OC(=O)C(O)C(NC(=O)OC(C)(C)C)c4ccccc4)CC(O)(C(OC(=O)c4ccccc4)C21)C3(C)C` (stereo not given) + COc1cc2nc(C)nc(NC(C)c3cc(N)cc(C(F)(F)F)c3)c2cc1OC1CCOC1?
IC50 (second compound 0.1 µM): < 10 nM; IC50 (second compound 0.316 µM): < 10 nM; IC50 (second compound 1 µM): < 10 nM; IC50 (second compound 3.16 µM): < 10 nM; IC50 (second compound 10 µM): < 10 nM; viability, T/C [1]: 22%; viability, T/C [2]: 25.7%; viability, T/C [3]: 24%; viability, T/C [4]: 33.4%; viability, T/C [5]: 27.4%; viability, T/C [6]: 38.3%; viability, T/C [7]: 20.7%; viability, T/C [8]: 27.1%; viability, T/C [9]: 25.8%; viability, T/C [10]: 23.7%; viability, T/C [11]: 28.6%; viability, T/C [12]: 34.5%; viability, T/C [13]: 22.8%; viability, T/C [14]: 31.1%; viability, T/C [15]: 27.4%; viability, T/C [16]: 33.7%; viability, T/C [17]: 27.8%; viability, T/C [18]: 29.6%; viability, T/C [19]: 18.3%; viability, T/C [20]: 21.3%; viability, T/C [21]: 21.7%; viability, T/C [22]: 26.3%; viability, T/C [23]: 28.3%; viability, T/C [24]: 22.1%; viability, T/C [25]: 20.1%; viability, T/C [26]: 23.3%; viability, T/C (second compound 10 µM, first compound 0.1 µM): 25.4%; viability, T/C (second compound 10 µM, first compound 0.316 µM): 20.4%; viability, T/C (second compound 10 µM, first compound 1 µM): 23.2%; viability, T/C (second compound 10 µM, first compound 3.16 µM): 26.2%

What does the source list for `CC(=O)OC12COC1CC(O)C1(C)C(=O)C(O)C3=C(C)C(OC(=O)C(O)C(NC(=O)OC(C)(C)C)c4ccccc4)CC(O)(C(OC(=O)c4ccccc4)C21)C3(C)C` (stereo not given) + C=CC(=O)N1CCN(c2nc(OCC3CCCN3C)nc3c2CCN(c2cccc4cccc(C)c24)C3)CC1CC#N?
IC50 (second compound 0.0316 µM): < 10 nM; IC50 (second compound 0.1 µM): < 10 nM; IC50 (second compound 0.316 µM): < 10 nM; IC50 (second compound 1 µM): < 10 nM; IC50 (second compound 3.16 µM): < 10 nM; viability, T/C (second compound 0.0316 µM, first compound 0.01 µM): 12%; viability, T/C (second compound 0.0316 µM, first compound 0.0316 µM): 20%; viability, T/C (second compound 0.0316 µM, first compound 0.1 µM): 16.5%; viability, T/C (second compound 0.0316 µM, first compound 0.316 µM): 17.8%; viability, T/C (second compound 0.0316 µM, first compound 1 µM): 24.9%; viability, T/C (second compound 0.0316 µM, first compound 3.16 µM): 23.5%; viability, T/C [1]: 13.5%; viability, T/C [2]: 12%; viability, T/C [3]: 15.2%; viability, T/C [4]: 17.2%; viability, T/C [5]: 21.1%; viability, T/C [6]: 18%; viability, T/C [7]: 10.8%; viability, T/C [8]: 14.2%; viability, T/C [9]: 12.8%; viability, T/C [10]: 14.6%; viability, T/C [11]: 18.3%; viability, T/C [12]: 18%; viability, T/C [13]: 9.34%; viability, T/C [14]: 12.5%; viability, T/C [15]: 12.2%; viability, T/C [16]: 11.6%; viability, T/C [17]: 14.8%; viability, T/C [18]: 17.5%; viability, T/C [19]: 12.8%; viability, T/C [20]: 14.4%; viability, T/C [21]: 19.9%; viability, T/C [22]: 20%; viability, T/C [23]: 19.5%; viability, T/C [24]: 24.3%

`CC(=O)Nc1cccc(-n2c(=O)n(C3CC3)c(=O)c3c(Nc4ccc(I)cc4F)n(C)c(=O)c(C)c32)c1` + C=CC(=O)N1CCN(c2nc(=O)n(-c3c(C)ccnc3C(C)C)c3nc(-c4c(O)cccc4F)c(F)cc23)C(C)C1 was tested. Which IC50 (second compound 0.1 µM) did it give?
The IC50 was less than 0.1 nM.

And the IC50 (second compound 0.316 µM)?
The IC50 was less than 0.1 nM.

And the IC50 (second compound 1 µM)?
Its IC50 is less than 0.1 nM.

And the IC50 (second compound 3.16 µM)?
The IC50 was less than 0.1 nM.

What about the IC50 (second compound 10 µM) of the same compound?
The IC50 was less than 0.1 nM.

And the viability, T/C (second compound 0.1 µM, first compound 0.0001 µM)?
The viability, T/C was 48.6%.

And the viability, T/C (second compound 0.1 µM, first compound 0.000316 µM)?
The viability, T/C was 21.9%.

And the viability, T/C (second compound 0.1 µM, first compound 0.001 µM)?
The viability, T/C was 20.4%.

And the viability, T/C (second compound 0.1 µM, first compound 0.00316 µM)?
Its viability, T/C is 17.6%.

What about the viability, T/C [1] of the same compound?
The viability, T/C was 11%.

And the viability, T/C [2]?
Its viability, T/C is 7.55%.

What about the viability, T/C (second compound 0.316 µM, first compound 0.0001 µM) of the same compound?
Its viability, T/C is 34.9%.

And the viability, T/C (second compound 0.316 µM, first compound 0.000316 µM)?
Its viability, T/C is 31.2%.

What about the viability, T/C (second compound 0.316 µM, first compound 0.001 µM) of the same compound?
The viability, T/C was 25.3%.

What about the viability, T/C (second compound 0.316 µM, first compound 0.00316 µM) of the same compound?
The viability, T/C was 19.1%.

And the viability, T/C [7]?
The viability, T/C was 11.8%.

And the viability, T/C [8]?
Its viability, T/C is 9.88%.

What about the viability, T/C (second compound 1 µM, first compound 0.0001 µM) of the same compound?
The viability, T/C was 39.4%.

What about the viability, T/C (second compound 1 µM, first compound 0.000316 µM) of the same compound?
Its viability, T/C is 34.8%.

And the viability, T/C (second compound 1 µM, first compound 0.001 µM)?
The viability, T/C was 23.4%.

What about the viability, T/C (second compound 1 µM, first compound 0.00316 µM) of the same compound?
Its viability, T/C is 19.3%.

And the viability, T/C [13]?
The viability, T/C was 13.4%.

And the viability, T/C [14]?
Its viability, T/C is 8.89%.

What about the viability, T/C (second compound 3.16 µM, first compound 0.0001 µM) of the same compound?
The viability, T/C was 39.5%.

What about the viability, T/C (second compound 3.16 µM, first compound 0.000316 µM) of the same compound?
Its viability, T/C is 29%.

And the viability, T/C (second compound 3.16 µM, first compound 0.001 µM)?
Its viability, T/C is 22%.

And the viability, T/C (second compound 3.16 µM, first compound 0.00316 µM)?
The viability, T/C was 20.9%.

And the viability, T/C [19]?
Its viability, T/C is 13%.

And the viability, T/C [20]?
Its viability, T/C is 10%.

And the viability, T/C (second compound 10 µM, first compound 0.0001 µM)?
The viability, T/C was 25.4%.

What about the viability, T/C (second compound 10 µM, first compound 0.000316 µM) of the same compound?
Its viability, T/C is 17.4%.

What about the viability, T/C (second compound 10 µM, first compound 0.001 µM) of the same compound?
Its viability, T/C is 18.2%.

What about the viability, T/C (second compound 10 µM, first compound 0.00316 µM) of the same compound?
The viability, T/C was 15.9%.

And the viability, T/C [25]?
The viability, T/C was 10.7%.

What about the viability, T/C [26] of the same compound?
The viability, T/C was 9.82%.
